Results from patent US4102884A, “14 β-Hydroxy 3-deoxycardenolides” (priority 1975, dated 1978).
Entries after “also recorded” stand apart in the source; their conditions may differ. Like-named read-outs stand apart in the source and are kept apart here.

What was measured:
ATP-ase = ATP-ase inhibition, methods of Okita et al (1973) and Kupchan et al (1964); assay type: biochemical, guinea pigs (brain); design: ATP-ase inhibition, % reversibility of inhibition: concentration or dose not given beside the values; conditions: for ATP-ase inhibition, % reversibility of inhibition / ATP-ase inhibition, % inhibition at a 1×10^-4 molar concentration: Table 2; for ATP-ase inhibition, comparison in words: compared with 3-deoxycannogenol and digoxin, or acetyl-strophanthidin
Procedure: (§1) The inotropic effects have been determined with spontaneously beating atrial preparations derived from guinea pigs. The ATP-ase was obtained from the brain of the same animal and the methods of Okita et al (1973) and of Kupchan et al (1964) were employed. The lethal dose in cats was determined by the method of Chen.

[1] = tested on: spontaneously beating atrial preparations; experiment: Inotropic effect (increase in contractility) in spontaneously beating atrial preparations; design: species or system guinea pigs; conditions: for EC (30% increase in contractility) / EC (50% increase in contractility) / EC (80% increase in contractility): Cavia porcellus; for EC (30% increase in contractility): read-out: Molar concentration causing 30% increase in contractility; for EC (50% increase in contractility): read-out: Molar concentration causing 50% increase in contractility; for EC (80% increase in contractility): read-out: Molar concentration causing 80% increase in contractility; for inotropic effect, comparison in words: compared with digoxin and/or 3-deoxycannogenol; for arrhythmogenicity relative to digoxin, in words: inotropic tests
Procedure: as §1

cats [2] = experiment: Lethal dose in cats, method of Chen; assay type: in vivo; conditions: compared with digoxin
Procedure: as §1

cats [3] = experiment: Emetic effects in cats, intravenous; assay type: in vivo; conditions: intravenous doses amounting to 1/10 and 1/100 of the lethal dose
heart muscle = tested on: heart muscle; design: species or system guinea pigs; conditions: decreasing order of number of washings; inotropic tests
Procedure: as §1

[4] = Lipophilicity (statement in words); assay type: physicochemical
heart = conditions: literature; cited from earlier work
[5] = cited from earlier work
[6] = Table 2, preliminary biological tests, 30%
[7] = Table I / Example 45, guinea pig atria

**Q.** What does the source list for C[C@]12CC[C@H]3[C@@H](CC[C@@H]4C=CCC[C@@]43COC=O)[C@@]1(O)CC[C@@H]2C1=CC(=O)OC1?
**A.** ATP-ase inhibition, % reversibility of inhibition (ATP-ase): 84%; ATP-ase inhibition, % inhibition at a 1×10^-4 molar concentration (ATP-ase): 41%

**Q.** What does the source list for C[C@]12CC[C@H]3[C@@H](CC[C@H]4CCCC[C@@]43COC=O)[C@@]1(O)CC[C@@H]2C1=CC(=O)OC1?
**A.** EC (30% increase in contractility) [1, 6]: 50 µM; ATP-ase inhibition, % reversibility of inhibition (ATP-ase): 95%; ATP-ase inhibition, % inhibition at a 1×10^-4 molar concentration (ATP-ase): 42%

**Q.** For C[C@]12CC[C@H]3[C@@H](CC[C@H]4C=CCC[C@@]43CO)[C@@]1(O)CC[C@@H]2C1=CC(=O)OC1, which “Molar concentration causing 30% increase in contractility” value [1, 6] is on record?
**A.** The value was “inactive”.

**Q.** And the “ATP-ase inhibition, % reversibility of inhibition” value (ATP-ase)?
**A.** Its value is 81%.

**Q.** What about the “ATP-ase inhibition, % inhibition at a 1×10^-4 molar concentration” value (ATP-ase) of the same molecule?
**A.** The value was 63%.

**Q.** Which results are given for C[C@]12CC[C@H]3[C@@H](CC[C@@H]4CCCC[C@@]43CO)[C@@]1(O)CC[C@@H]2C1=CC(=O)OC1 [3-deoxycannogenol, 19-hydroxy-3-deoxydigitoxigenin]?
**A.** dissociation of inotropic activity from ATP-ase inhibition and lethality, in words [1]: strong dissociation of inotropic activity from ATP-ase inhibition and lethality; EC (50% increase in contractility) [1, 7]: 1.1 µM; EC (30% increase in contractility) ([1]; Table I, guinea pig atria, 30%): 0.72 µM; EC (80% increase in contractility) ([1]; Table I, guinea pig atria): 1.95 µM; arrhythmia, in words ([1]; at doses causing an increase of 90% of contractile force): no arrhythmia were observed; inotropic effect, comparison in words [1]: considerably more strongly than digoxin; also recorded: strong inotropic effect; arrhythmogenicity relative to digoxin, in words [1]: considerably less arrhythomogenic than digoxin; times more inotropic than digoxin ([1]; molar basis, relative to digoxin): 2-4 times; toxicity relative to digoxin (lethal dose), in words (cats [2]; cats): substantially lower than that of digoxin; also recorded: less than half as toxic as digoxin; therapeutic index, in words (cats [2]): better therapeutic index; emetic effects (cats [3]): no emetic effects; number of washings to remove the compound from the bath / ease of removal (heart muscle): more readily removed from the bath, containing the heart muscle, by repeated washing, than digoxin and less readily than the more polar strophanthidin 3-acetate; also recorded: digitoxin > digoxin > 3-deoxycannogenol > 14,19-dihydroxy-5β,14β-carda-3,20(22)-dienolide > strophanthidin 3-acetate; lipophilicity, in words [4]: considerably more lipohilic than the 19-oxygenated cardenolides obtained from natural sources

**Q.** For C[C@]12CCCC[C@H]1CC[C@@H]1[C@@H]2CC[C@]2(C)[C@@H](C3=CC(=O)OC3)CC[C@]12O [3-deoxydigitoxigenin, 14-hydroxy-5β,14β-card-20(22)-enolide], which “cardiac activity, in words” value (heart) is on record?
**A.** The value was “significantly less active than digitoxigenin”.

**Q.** What does the source list for C[C@]12CCCC[C@H]1CC[C@@H]1[C@@H]2C[C@@H](O)[C@]2(C)[C@@H](C3=CC(=O)OC3)CC[C@]12O [3-deoxydigoxigenin]?
**A.** EC (50% increase in contractility) [1, 7]: 7.6 µM; inotropic effect, comparison in words [1]: comparable biological and inotropic effects; arrhythmogenicity relative to digoxin, in words [1]: much less arrhythomogenic relative to the anitropic activity than digoxin; ATP-ase inhibition, comparison in words (ATP-ase): comparable biological and inotropic effects and the ATP-ase inhibition as the 19-deoxygenated steroid acetyl-strophanthidin; IC50 (ATP-ase; guinea pig brain ATP-ase, read-out: Molar concentration causing 50% ATP-ase inhibition): 68 µM

**Q.** With C[C@]12CC[C@H]3[C@@H](CC[C@@H]4C=CCC[C@@]43CO)[C@@]1(O)CC[C@@H]2C1=CC(=O)OC1 [14,19-dihydroxy-5β,14β-carda-3,20(22)-dienolide] as the molecule, how does the EC (50% increase in contractility) [1, 7] read?
**A.** The EC (50% increase in contractility) was 2.8 µM.

**Q.** And the EC (30% increase in contractility) ([1]; Table I, guinea pig atria, 30%)?
**A.** Its EC (30% increase in contractility) is 2.2 µM.

**Q.** And the EC (80% increase in contractility) ([1]; Table I, guinea pig atria)?
**A.** Its EC (80% increase in contractility) is 4 µM.

**Q.** And the “inotropic effect, comparison in words” value [1]?
**A.** Its value is “generally between those of 3-deoxycannogenol and digoxin”.

**Q.** What about the “inotropic effect, comparison in words” value ([1]; listed as 3(4)-anhydrocannogenol) of the same molecule?
**A.** The value was “greater inotropic activity than digoxin, though it is less active than 3-deoxycannogenol”.

**Q.** And the “arrhythmogenicity relative to digoxin, in words” value [1]?
**A.** Its value is “considerably less arrhythomogenic than digoxin”.

**Q.** What about the “toxicity relative to digoxin, in words” value (ATP-ase; basis not stated, only ATP-ase inhibition tabulated) of the same molecule?
**A.** The value was “appears to be less toxic than digoxin”.

**Q.** And the “ATP-ase inhibition, comparison in words” value (ATP-ase)?
**A.** Its value is “generally between those of 3-deoxycannogenol and digoxin”.

**Q.** And the “number of washings to remove the compound from the bath / ease of removal” value (“number … from the bath / ease of removal” for short) (heart muscle)?
**A.** The value was “digitoxin > digoxin > 3-deoxycannogenol > 14,19-dihydroxy-5β,14β-carda-3,20(22)-dienolide > strophanthidin 3-acetate”.

**Q.** What does the source list for C[C@]12CC[C@H]3[C@@H](CC[C@@H]4CCCC[C@@]43COC=O)[C@@]1(O)CC[C@@H]2C1=CC(=O)OC1 [19-formate of 3-deoxycannogenol, 19-formyloxy-14-hydroxy-5β,14β-card-20(22)-enolide]?
**A.** inotropic effect, comparison in words [1]: substantial inotropic activity which equals about that of digoxin; inotropic effect, comparison in words ([1]; listed as 19-formate ester of 3-deoxycannogenol): less active than 3-deoxycannogenol; lipophilicity, in words [4]: more lipophilic

**Q.** For C[C@]12CC[C@@H]3[C@H]4CCCC[C@H]4CC[C@H]3[C@@]1(O)CC[C@@H]2C1=CC(=O)OC1 [19-nor analog, 14-hydroxy-19-nor-5β,14β-card-20(22)-enolide], which “heart-activity, in words” value [1] is on record?
**A.** Its value is “substantial heart-activities”.

**Q.** For C[C@]12CC[C@H]3[C@@H](CC[C@@H]4CCCC[C@@]43CO)[C@@]1(O)CC[C@@H]2C1COC(=O)C1 (stereo partly drawn) [20(22)-dihydro analog, 3-deoxy-20.xi.,22-dihydrocannogenol], which “heart-activity, in words” value [1] is on record?
**A.** Its value is “substantial heart-activities”.

**Q.** With CO[C@H]1C[C@H](O[C@H]2CC[C@]3(C)[C@H]4CC[C@]5(C)[C@@H](C6=CC(=O)OC6)CC[C@]5(O)[C@@H]4CC[C@]3(O)C2)O[C@H](C)[C@H]1O [cymaroside of 5β-hydroxydigitoxigenin] as the molecule, how does the “cardiac activity, in words” value (heart) read?
**A.** The value was “nearly twice as active as the cymaroside of digitoxigenin”.

**Q.** For C[C@H]1O[C@@H](O[C@H]2[C@@H](O)C[C@H](O[C@H]3[C@@H](O)C[C@H](O[C@H]4CC[C@@]5(C)[C@H](CC[C@@H]6[C@@H]5CC[C@]5(C)[C@@H](C7=CC(=O)OC7)CC[C@]65O)C4)O[C@@H]3C)O[C@@H]2C)C[C@H](O)[C@@H]1O [digitoxin, reference compound], which “number … from the bath / ease of removal” value (heart muscle) is on record?
**A.** The value was “digitoxin > digoxin > 3-deoxycannogenol > 14,19-dihydroxy-5β,14β-carda-3,20(22)-dienolide > strophanthidin 3-acetate”.

**Q.** For C[C@]12CC[C@H]3[C@@H](CC[C@@H]4CCCC[C@@]43COC=O)[C@@]1(O)CC[C@@H]2C1=CC(=O)OC1 [drawing 19], which EC (30% increase in contractility) [1, 6] is on record?
**A.** Its EC (30% increase in contractility) is 2.9 µM.

**Q.** Which EC (30% increase in contractility) [1, 6] does the source give for C[C@]12CC[C@H]3[C@@H](CC[C@@H]4CCCC[C@@]43CO)[C@@]1(O)CC[C@@H]2C1COC(=O)C1 (stereo partly drawn) [drawing 21] here?
**A.** Its EC (30% increase in contractility) is 18.5 µM.

**Q.** And the EC (50% increase in contractility) ([1]; Table 2, preliminary biological tests)?
**A.** Its EC (50% increase in contractility) is 40 µM.

**Q.** What about the “ATP-ase inhibition, % reversibility of inhibition” value (ATP-ase) of the same molecule?
**A.** The value was 57%.

**Q.** And the “ATP-ase inhibition, % inhibition at a 1×10^-4 molar concentration” value (ATP-ase)?
**A.** The value was 45%.

**Q.** Which results are given for C[C@]12CC[C@@H]3[C@H]4CCCC[C@H]4CC[C@H]3[C@@]1(O)CC[C@@H]2C1=CC(=O)OC1 [drawing 23]?
**A.** ATP-ase inhibition, % reversibility of inhibition (ATP-ase): 76%; ATP-ase inhibition, % inhibition at a 1×10^-4 molar concentration (ATP-ase): 59%

**Q.** Which results are given for C[C@@H]1O[C@@H](O[C@H]2C[C@@H](O)[C@]3(CO)[C@H]4[C@H](O)C[C@]5(C)[C@@H](C6=CC(=O)OC6)CC[C@]5(O)[C@@H]4CC[C@]3(O)C2)[C@H](O)[C@H](O)[C@H]1O [ouabain]?
**A.** intravenous activity, onset and duration, in words [5]: high intravenous activity, fast onset and short duration of activity; oral activity, in words [5]: rather low oral activity

**Q.** With C[C@@H]1O[C@@H](OC2CC[C@@]3(CO)[C@@H](CC[C@@H]4[C@@H]3[C@@H](O)C[C@]3(C)[C@@H](C5=CC(=O)OC5)CC[C@]43O)C2)[C@H](O)[C@H](O)[C@H]1O (stereo partly drawn) [panoside] as the molecule, how does the “cardiac activity, in words” value (heart) read?
**A.** The value was “high cardiac activity; also recorded: highly potent”.

**Q.** With CC(=O)O[C@@H]1C[C@]2(O)[C@H](CC[C@]3(C)[C@@H](c4ccc(=O)oc4)CC[C@@]32O)[C@@]2(C)CC[C@H](O)C=C12 [scillirosidin] as the molecule, how does the “cardiac activity, in words” value (heart) read?
**A.** The value was “high cardiac activity”.

**Q.** Which “number … from the bath / ease of removal” value (heart muscle) does the source give for CC(=O)O[C@H]1CC[C@]2(C=O)[C@H]3CC[C@]4(C)[C@@H](C5=CC(=O)OC5)CC[C@]4(O)[C@@H]3CC[C@]2(O)C1 [strophanthidin 3-acetate] here?
**A.** Its value is “digitoxin > digoxin > 3-deoxycannogenol > 14,19-dihydroxy-5β,14β-carda-3,20(22)-dienolide > strophanthidin 3-acetate”.

**Q.** And the “intravenous activity, onset and duration, in words” value [5]?
**A.** The value was “high intravenous activity, fast onset and short duration of activity”.

**Q.** And the “oral activity, in words” value [5]?
**A.** The value was “rather low oral activity”.
